Data set [1] deals with WT S. aureus (ATCC 29213, WT). In words: microbe, parasite or virus in culture. The settings on record: for MIC against S. aureus 29213: ATCC 29213; for MIC: Staphylococcus aureus. Format: cell-based.
Data set [2] concerns FQR S. aureus (NRS3, FQR). In words: MIC, microdilution broth assay, FQR MRSA NRS3. The format is cell-based. The settings on record: for MIC: Staphylococcus aureus.
Another data set is described as follows: physchem. The note with it: pH 7.4.
Another data set deals with MRSA clinical isolates. The experiment in a line: microbe, parasite or virus in culture. The format is cell-based, S. aureus. The settings on record: Staphylococcus aureus, MRSA, read-out: MIC. As for the experimental part: MRSA and P. aeruginosa isolates were from Cubist Pharmaceuticals (Lexington, MA). VRE isolates were from a previously published collection. E. coli strains were obtained either from ATCC or Professor Cari Vanderpool (UIUC). A. baumannii isolates were obtained from Dr John Quale[51].
Susceptibility testing was performed in triplicate, using the microdilution broth method as outlined by the Clinical and Laboratory Standards Institute[52]. Mueller Hinton (MH) broth was used.

Data set [3] can be described thus: Pharmacokinetic assessment. The format is in vivo, C57BL/6 mice. How it is done: (§1) The animal studies (PK, in-vivo toxicity and in-vivo efficacy) were carried out in strict accordance with the recommendations in the Guide for the Care and Use of Laboratory Animals of the National Institutes of Health. […] In these studies, 10- to 12-week-old female C57BL/6 mice purchased from Charles River were used. DNM, DNM-2 and DNM-3 were formulated as slurries at 8.3 mg ml^−1 in 25% Cremophor RH40/water (v/v). Before beginning the pharmacokinetic assessment, mice were first tested for their ability to tolerate the DNM, DNM-2 and DNM-3 at 50 mg kg^−1 (p.o.). […] At specified time points, mice were killed and blood was collected, centrifuged and the serum was frozen at −80 °C until analysis. The proteins in a 50-μl aliquot of serum were precipitated by the addition of 50 μl of acetonitrile and the sample was centrifuged to remove the proteins. Serum concentrations of DNM, DNM-2 and DNM-3 were determined by HPLC. PK parameters were determined using GraphPad Prism Version 5.00 for Windows.

Data set [4] is described as follows: Tolerability in mice (maximal tolerated dose). Format: in vivo. The settings on record: increasing doses, highest dose evaluated 50 mg kg^−1 by oral gavage. As for the experimental part: as §1
Setting [5] is: WT GyrA and WT ParC, three independent replicates.
Setting [6] is: ATCC29213, ATCC 29213, WT GyrA and WT ParC, three independent replicates, read-out: MIC against S. aureus 29213.
Where [7] appears, read: NRS3, S84L GyrA and S80F ParC, three independent replicates.
The mark [8] stands for this setting: female, C57BL/6, mouse, in vivo, C57/BL6 mice, 50 mg kg-1 oral gavage, serum.
[9] abbreviates: NRS3, S84L GyrA and S80F ParC, three independent replicates, read-out: MIC against S. aureus NRS3.

Converted amounts (≈) assume the structure as drawn. “And” between values parts separate entries of the source, which are not always exact repeats. Equal values may be shown once. Read-outs that look alike come from different tables or passages of the source.

Procedure for physchem: Three independent replicates of each compound were performed.

Take `CCc1cc(=O)n(C)c2c3c4c(cc12)c(CC)cc(=O)n4CO3` [compound 13]: the “MIC against S. aureus 29213” value in data set [1] (setting [5]) was greater than 32 µg/mL. Besides, the MIC in data set [1] (setting [6]) is greater than 32 µg/mL. Besides, the “MIC against S. aureus NRS3” value in data set [2] (setting [7]) is 16 µg/mL (≈ 51.6 µM). Also, the solubility at 1 h in “physchem” stood at 48 ± 8 µM (≈ 14.9 µg/mL).

Regarding `CCCc1cc(=O)n2c3c(c4c(cc13)c(C)cc(=O)n4C)OC2` [compound 6], the “MIC against S. aureus 29213” value in data set [1] (setting [5]) is 16 µg/mL (≈ 51.6 µM). Besides, the MIC in data set [1] (setting [6]) came to 16 µg/mL (≈ 51.6 µM). Further, in data set [2] (setting [7]), the “MIC against S. aureus NRS3” value stood at 0.25 µg/mL (≈ 0.806 µM).

For `CCCc1cc(=O)n(C)c2c3c4c(cc12)c(C)cc(=O)n4CO3` [compound 7], the “MIC against S. aureus 29213” value in data set [1] (setting [5]) was found to be 16 µg/mL (≈ 51.6 µM). Moreover, the MIC in data set [1] (setting [6]) is 16 µg/mL (≈ 51.6 µM). The “MIC against S. aureus NRS3” value in data set [2] (setting [7]) was determined as 1 µg/mL (≈ 3.22 µM).

With `CCc1cc(=O)n(C)c2c3c4c(cc12)c(C)cc(=O)n4CO3` [compound 4], the “MIC against S. aureus 29213” value in data set [1] (setting [5]) turned out to be 8 µg/mL (≈ 27 µM). Moreover, the MIC in data set [1] (setting [6]) came out at 8 µg/mL (≈ 27 µM). For the same molecule, the “MIC against S. aureus NRS3” value in data set [2] (setting [7]) came out at 0.25 µg/mL (≈ 0.844 µM). In “physchem”, this molecule gave a solubility at 1 h of 53 µM (≈ 15.7 µg/mL).

For `CCCCCCn1c(=O)cc(C)c2cc3c(C)cc(=O)n4c3c(c21)OC4` [compound 10], the “MIC against S. aureus 29213” value in data set [1] (setting [5]) is greater than 64 µg/mL. Besides, the MIC in data set [1] (setting [6]) is greater than 64 µg/mL. In data set [2] (setting [7]), the “MIC against S. aureus NRS3” value stood at 1 µg/mL (≈ 2.84 µM).

For the molecule `CC1(C)S[C@@H]2[C@H](NC(=O)[C@H](N)c3ccccc3)C(=O)N2[C@H]1C(=O)O` [Amp, Ampicillin, reference compound], the MIC with MRSA clinical isolates (strain SAU.1118) was greater than 64 µg/mL; in the data set on MRSA clinical isolates (strain SAU.3024), greater than 64 µg/mL; in the data set on MRSA clinical isolates (strain SAU.3025), 64 µg/mL (≈ 183 µM); in the data set on MRSA clinical isolates (strain SAU.419) it was greater than 64 µg/mL; with MRSA clinical isolates (strain SAU.42), 2 µg/mL (≈ 5.72 µM); in the data set with MRSA clinical isolates (strain SAU.446), greater than 64 µg/mL. For the same molecule, the MIC in the data set on MRSA clinical isolates (strain SAU.447) and in the data set on MRSA clinical isolates (strain SAU.555) was greater than 64 µg/mL in each case.

With `CCc1cc(=O)n2c3c(c4c(cc13)c(C)cc(=O)n4C)OC2` [DNM-3], the “MIC against S. aureus 29213” value in data set [1] (setting [5]) was 8 µg/mL (≈ 27 µM). Also, the MIC in data set [1] (setting [6]) was determined as 8 µg/mL (≈ 27 µM). In addition, the “MIC against S. aureus NRS3” value in data set [2] (setting [7]) was determined as 0.12 µg/mL (≈ 0.405 µM). Also, in data set [3] (setting [8]), the AUC was 4000 ng·h/mL, the Tmax is 1.1 h and the half-life is 1.2 h. Besides, in data set [3] (female, C57BL/6, mouse, mice, 50 mg kg^−1 oral dose, serum, read-out: Cmax (peak serum concentration)), the Cmax is 4.3 µM and 1260 ng/mL. Moreover, the “oral bioavailability / serum exposure” value in data set [3] (mice, 50 mg kg^−1 oral dose) is listed as “intermediate level of bioavailability”. Besides, the “area under the curve” value in data set [3] (mice, 50 mg kg^−1 oral dose, serum) came to 4000 ng·h/mL. Also, the tolerability result in data set [4] is “well tolerated up to the highest dose evaluated”. The same molecule had a solubility at 1 h in “physchem” of 27 µM (≈ 8 µg/mL).

As to `CCCCCCCCCC(=O)N[C@@H](Cc1c[nH]c2ccccc12)C(=O)N[C@H](CC(N)=O)C(=O)N[C@@H](CC(=O)O)C(=O)N[C@@H]1C(=O)NCC(=O)N[C@@H](CCCN)C(=O)N[C@@H](CC(=O)O)C(=O)N[C@H](C)C(=O)N[C@@H](CC(=O)O)C(=O)NCC(=O)N[C@H](CO)C(=O)N[C@@H]([C@H](C)CC(=O)O)C(=O)N[C@@H](CC(=O)c2ccccc2N)C(=O)O[C@@H]1C` [daptomycin, reference compound], the MIC in data set [1] (setting [6]) was determined as 2 µg/mL (≈ 1.23 µM); in data set [2] (setting [9]), 8 µg/mL (≈ 4.94 µM). The “MIC against S. aureus NRS3” value in data set [2] (setting [7]) came out at 8 µg/mL (≈ 4.94 µM).

Regarding `Cc1cc(=O)n2c3c(c4c(cc13)c(C)cc(=O)n4CC(C)(C)C)OC2` [compound 12], in data set [1] (setting [5]), the “MIC against S. aureus 29213” value amounted to 32 µg/mL (≈ 94.6 µM). In addition, in data set [1] (setting [6]), the MIC was determined as 32 µg/mL (≈ 94.6 µM). Further, in data set [2] (setting [7]), the “MIC against S. aureus NRS3” value amounted to 16 µg/mL (≈ 47.3 µM).

Turning to `CCCCCn1c(=O)cc(C)c2cc3c(C)cc(=O)n4c3c(c21)OC4` [compound 9], the “MIC against S. aureus 29213” value in data set [1] (setting [5]) is 32 µg/mL (≈ 94.6 µM). For the same molecule, the MIC in data set [1] (setting [6]) was 32 µg/mL (≈ 94.6 µM). Also, the “MIC against S. aureus NRS3” value in data set [2] (setting [7]) was found to be 0.25 µg/mL (≈ 0.739 µM).

For `CC(=O)NC[C@H]1CN(c2ccc(N3CCOCC3)c(F)c2)C(=O)O1` [linezolid, reference compound], in data set [2] (setting [7]), the “MIC against S. aureus NRS3” value was 0.5 µg/mL (≈ 1.48 µM). The MIC in data set [2] (setting [9]) was 0.5 µg/mL (≈ 1.48 µM).

Turning to `Cc1cc(=O)n(C)c2c3c4c(cc12)c(C)cc(=O)n4C(C)O3` (stereo not drawn) [compound 5], in data set [1] (setting [5]), the “MIC against S. aureus 29213” value is 4 µg/mL (≈ 13.5 µM). Moreover, in data set [1] (setting [6]), the MIC was determined as 4 µg/mL (≈ 13.5 µM).

For the molecule `CO[C@@H]1[C@@H](OC(N)=O)[C@@H](O)[C@H](Oc2ccc3c(O)c(NC(=O)c4ccc(O)c(CC=C(C)C)c4)c(=O)oc3c2C)OC1(C)C` [Novo, Novobiocin, reference compound], the MIC with MRSA clinical isolates (strain SAU.1118) is 0.5 µg/mL (≈ 0.816 µM); in the data set with MRSA clinical isolates (strain SAU.3017), 0.5 µg/mL (≈ 0.816 µM); in the data set with MRSA clinical isolates (strain SAU.3021), 0.25 µg/mL (≈ 0.408 µM); in the data set with MRSA clinical isolates (strain SAU.419), 0.25 µg/mL (≈ 0.408 µM); with MRSA clinical isolates (strain SAU.42), 0.5 µg/mL (≈ 0.816 µM); with MRSA clinical isolates (strain SAU.447), 0.25 µg/mL (≈ 0.408 µM). The MIC in the data set on MRSA clinical isolates (strain SAU.555) was 0.25 µg/mL (≈ 0.408 µM); with MRSA clinical isolates (strain SAU.846), 0.125 µg/mL (≈ 0.204 µM).

Regarding `Cc1cc(=O)[nH]c2c(O)c3c(cc12)c(C)cc(=O)n3C` [compound 1], the MIC in data set [1] (setting [6]) was determined as 2 µg/mL (≈ 7.4 µM); in data set [2] (NRS3, read-out: MIC against S. aureus NRS3), 4 µg/mL (≈ 14.8 µM).

On to `Cc1cc(=O)n2c3c(c4c(cc13)c(C)cc(=O)n4CC(C)C)OC2` [compound 11], for which, in data set [1] (setting [5]), the “MIC against S. aureus 29213” value is greater than 32 µg/mL. Further, in data set [1] (setting [6]), the MIC was greater than 32 µg/mL. The “MIC against S. aureus NRS3” value in data set [2] (setting [7]) was found to be 2 µg/mL (≈ 6.17 µM).

Turning to `CCCCn1c(=O)cc(CCC)c2cc3c(CCC)cc(=O)n4c3c(c21)OC4` [compound 15], the “MIC against S. aureus 29213” value in data set [1] (setting [5]) is greater than 32 µg/mL. Besides, the MIC in data set [1] (setting [6]) is greater than 32 µg/mL. The “MIC against S. aureus NRS3” value in data set [2] (setting [7]) is 32 µg/mL (≈ 84.1 µM).

Consider `CN[C@H](CC(C)C)C(=O)N[C@H]1C(=O)N[C@@H](CC(N)=O)C(=O)N[C@H]2C(=O)N[C@H]3C(=O)N[C@H](C(=O)N[C@H](C(=O)O)c4cc(O)cc(O)c4-c4cc3ccc4O)[C@H](O)c3ccc(c(Cl)c3)Oc3cc2cc(c3O[C@@H]2O[C@H](CO)[C@@H](O)[C@H](O)[C@H]2O[C@H]2C[C@](C)(N)[C@H](O)[C@H](C)O2)Oc2ccc(cc2Cl)[C@H]1O` [vancomycin, reference compound], for which the MIC in data set [1] (ATCC29213, read-out: MIC against S. aureus 29213) was determined as 1 µg/mL (≈ 0.69 µM); in data set [2] (setting [9]), 8 µg/mL (≈ 5.52 µM); in the data set on MRSA clinical isolates (strain SAU.1118), 2 µg/mL (≈ 1.38 µM); in the data set on MRSA clinical isolates (strain SAU.2996) it was 1 µg/mL (≈ 0.69 µM); in the data set on MRSA clinical isolates (strain SAU.3017), 1 µg/mL (≈ 0.69 µM); with MRSA clinical isolates (strain SAU.3021), 1 µg/mL (≈ 0.69 µM). Besides, the MIC with MRSA clinical isolates (strain SAU.3024) stood at 2 µg/mL (≈ 1.38 µM); in the data set on MRSA clinical isolates (strain SAU.419) it was 4 µg/mL (≈ 2.76 µM); in the data set with MRSA clinical isolates (strain SAU.42), 1 µg/mL (≈ 0.69 µM); in the data set with MRSA clinical isolates (strain SAU.446) it was 2 µg/mL (≈ 1.38 µM); in the data set on MRSA clinical isolates (strain SAU.555) it was 1 µg/mL (≈ 0.69 µM); with MRSA clinical isolates (strain SAU.846) it was 8 µg/mL (≈ 5.52 µM). Further, in data set [2] (setting [7]), the “MIC against S. aureus NRS3” value stood at 8 µg/mL (≈ 5.52 µM).

The values above are taken from publication PMC4421842 (Nature Communications, 2015).
